From patent publication US20070282012A1 (priority 2004, published 2007)
Where “and” joins values, the source holds several entries; their conditions need not be identical. Equal values may be shown once.

Experiments:
tear deficient dry eyes [1] = system: tear deficient dry eyes; design: species or system human; conditions: in vivo
[2] = system: subjects regularly wearing SCL; design: species or system human; conditions: in vivo
normal subjects [3] = system: normal subjects; design: species or system human; conditions: in vivo
normal subjects [4] = system: normal subjects; design: species or system human; conditions: in vivo; remark: listed apart in the source
[5] = system: patients with tear deficient dry eye; conditions: human, in vivo
normal subjects [6] = system: normal subjects; design: species or system human; conditions: in vivo; remark: listed apart in the source
[7] = system: subjects regularly wearing SCL; design: species or system human; conditions: in vivo; remark: listed apart in the source
tear deficient dry eyes [8] = system: tear deficient dry eyes; design: species or system human; conditions: in vivo; remark: listed apart in the source
normal subjects [9] = conditions: in vivo
[10] = system: patients with tear deficient dry eye; conditions: human, in vivo; remark: listed apart in the source
[11] = system: patients with tear deficient dry eye; conditions: in vivo
[12] = system: subjects regularly wearing SCL; design: species or system human; conditions: in vivo; remark: listed apart in the source

For “Thiopropanal S-Oxide [lacrimatory component]”, the “radius of tear meniscus curvature R, mean value±standard deviation” value (tear deficient dry eyes [1]) was 0.34±0.20 mm, the NIBUT [2] was 9.1 ± 2.1 s and the “lacrimation in the contralateral non-exposed eye” value (normal subjects [3]) was “lacrimation is induced in the contralateral non-exposed eye”. The “time after exposure by which ΔR reached the maximum” value (normal subjects [3]) was at most 1 min, the “ΔR (2 minutes)” value (normal subjects [3]) was 0.25±0.14 mm and the “ΔR (10 minutes)” value (normal subjects [3]) was about 0 mm. For the same substance, the “ΔR in the contralateral non-exposed eye” value (normal subjects [3]) was 0.30 mm, the degree of stimulation (normal subjects [4]) was 0 and the “mean degree of the stimulation, four-level category rating” value (normal subjects [4]) was 3 and 1.5. For the same substance, the “mean time taken for the stimulation to be felt (ST)” value (normal subjects [4]) was 9.8 s and 14.5 s and 13.3 s, the “time taken for stimulation to be felt (ST), mean value±standard deviation” value (normal subjects [4]) was 9.8 ± 1.5 s and the “time after exposure at which ΔR was maximum” value [5] was 2 min. The “ΔR (5 minutes)” value [5] was about 0 mm, the “reflex lacrimation by nasal exposure” value (normal subjects [6]) was “no reflex lacrimation is induced” and the “R (radius of tear meniscus curvature), mean value±standard deviation” value [7] was 0.54±0.14 mm. The “extensibility of the tear lipid layer, Grade, mean value±standard deviation” value (tear deficient dry eyes [8]) was 1.5±0.6, the “adverse or lingering effects of the exposure on the ocular surface” value (normal subjects [9]) was “not found” and the “degree of the stimulation, four-level category rating” value [10] was “zero”. For the same substance, the “mean degree of the stimulation, four-level category rating” value [10] was 1.8 and 1.7, the “time taken for stimulation to be felt (ST), mean value±standard deviation” value [10] was 18.8 ± 9.3 s and 21.4 ± 9.8 s and the “effects on the ocular surface epithelium” value [11] was “No effects on the ocular surface epithelium was observed”. For the same substance, the “grades of specular image of the tears on SCL” value [12] was 1.4±0.5.
